Test results: US20220356169A1, “TETRAZINES FOR HIGH CLICK RELEASE SPEED AND YIELD” (priority 2019, published 2022)

What was measured:
[1] = Second-order rate constant of the IEDDA reaction with TCO 3.2, stopped-flow UV-Vis, pseudo first-order conditions; assay type: physicochemical; settings: 25% MeCN/PBS at 20° C.; mean ± SD (n = 5)
Protocol: (§1) The second-order rate constant of the IEDDA reaction between model TCO 3.2 and activators 2.7 or 2.8 in MeCN at 20° C. was determined (n=1) by UV-Vis spectrometry under second-order conditions. A cuvette was filled with a solution of activator (3 mL 0.083 mM in MeCN), and equilibrated at 20° C. Next, a solution of TCO 3.2 (10.0 μL, 25 mM in DMSO) was added. The absorption at 540 nm was measured every second in a time course experiment. From the decay of this absorption, the conversion x was calculated. The second-order rate constant k2 was determined from the slope of the curve of a plot of 1/c-1/c0 versus time. The second-order rate constant of the IEDDA reaction between model TCO 3.2 and activators 2.7, 2.8, 2.14, 2.16, or 2.17 in 25% MeCN/PBS at 20° C. was determined (n=5) by stopped-flow UV-Vis spectrometry under pseudo first-order conditions. Tetrazine solutions (0.25 mM in 25% MeCN/PBS) and TCO 3.2 (3.45 mM in 25% MeCN/PBS) were mixed in a volume ratio of 1:1, resulting in a concentration of 0.125 mM and 1.73 mM, respectively. The absorption at 520 nm was measured every 50 ms, and from the decay of this absorption, the pseudo first-order rate constant k1′ was determined by a nonlinear Simplex regression analysis of the data points using BioKine software. The second-order rate constant k2 was calculated: k2=k1′/c,TCO. As expected for a cycloaddition reaction, the reactivity in PBS is much higher than in MeCN, and importantly the tetrazines of the invention are at least 1 order of magnitude more reactive than the known and high-releasing 3,6-bismethyl-tetrazine (2.17), while giving similar release yields (see Example 7).

[2] = Triggered release of Construct-A from TCO trigger, HPLC-MS/PDA
Protocol: At the specified time point, the sample was analyzed by HPLC-MS/PDA, and the release yield was determined from the observed amounts of IEDDA adducts, elimination product, and/or released Construct. In case the release was not complete, the sample was incubated at 37° C. for additional time and analyzed once again.

[3] = system: 125I-labeled CC49 conjugate; assay: Triggered radiolabel release from 125I-labeled CC49-3.6 conjugate, SEC; settings: 2h in PBS at 37° C.
Protocol: The anti-TAG72 mAb CC49 was conjugated with 3.6 in borate buffer pH 8.0 (containing 1 mM DTPA) using 3 equiv. TCEP. After conjugation, the product was dialyzed extensively (20 kDa MW cut-off membrane) in PBS. The CC49-3.6 the conjugate was radiolabeled using a previously described ^125I-labeled tetrazine [Albu et al., Bioconjug Chem 2016, 27, 207-216] in PBS at 37° C. for 1 h. Due to the higher reactivity of the TCO tag on the outside vs the cleavable TCO trigger on the inside the radiolabeling occurred selectively via the TCO tag. The crude labeling mixture was purified using a desalting cartridge (Zeba spin column, 40 kDa MW cut-off) then the isolated ^125I-labeled CC49 conjugate was incubated with activator 2.7 for 2h in PBS at 37° C., resulting in reaction with the TCO trigger, yielding 88.6% radiolabel release, as confirmed by SEC analysis.

[4] = Second-order rate constant of the IEDDA reaction with TCO 3.2, UV-Vis under second-order conditions in MeCN; assay type: physicochemical; settings: MeCN at 20° C.; n = 1
Protocol: as §1, with “As expected for a cycloaddition reaction, the reactivity in PBS is much higher than in MeCN, and importantly the tetrazines of the invention are at least 1 order of magnitude more reactive than the known and high-releasing 3,6-bismethyl-tetrazine (2.17), while giving similar release yields (see Example 7).” left out

[5] = Activator stability in PBS at rt (UV decay at 520 nm); assay type: physicochemical; settings: mean ± SD (n = 3)
Protocol: The assessment of activator stability was performed in PBS at rt. Solutions in DMSO (2.5 mM, 20 μL) were diluted with PBS (3.00 mL), filtered, and incubated at rt. The decrease of the absorption band at 520 nm was monitored using UV spectroscopy.

ADC AVP0458-TCO-MMAE = assay: Triggered drug (MMAE) release from ADC in 50% mouse plasma, HPLC-SIM-MS; settings: for MMAE release from ADC AVP0458-TCO-MMAE, Release (%) / MMAE release level, in words: 50% mouse plasma, 37° C.; for MMAE release level, in words: after 24h incubation; for MMAE release speed, in words: compared with 2.17
Protocol: In a 1.5 mL vial, the following was combined: 650 μL mouse plasma, 600 μL PBS, 20 μL ADC (1.62 μg/μL in PBS) and 7.5 μL d8-MMAE solution (0.167 μg/μL, internal standard). Next, aliquots of 20 μL were prepared to which 5.2 μL of a tetrazine solution (0.25 mM in 1:1 DMSO/H2O) was added and the solution was incubated at 37° C. At various times, 100 μL of cold MeCN was added to the aliquot and the mixture was vortexed, stored at 4° C. for 30 min. and centrifuged. 20 μL of supernatant was taken and combined with 100 μL of 1% formic acid (aq) solution. This sample was analysed with HPLC-SIM-MS to quantify the ratio of free MMAE and d8-MMAE, which is a measure of the release yield.

[6] = Cell proliferation assay (MTT); assay type: cell-based; settings: human, 3 days incubation, mean ± SEM (n = 6), read-out: LS174T cell viability (%); for viability at 72 h, 0.01 μM: 0.01 μM activator; for viability at 72 h, 0.1 μM: 0.1 μM activator; for viability at 72 h, 1 μM: 1 μM activator
Protocol: The human colon carcinoma LS174T cell line was obtained from the American Type Culture Collection and cultured in RPMI-1640 medium supplemented with 2 mM glutamine and 10% heat inactivated fetal calf serum. Twenty-four hours prior to the experiment, the cells were plated in 96-well plates at a 5000 cells/well density. The cells were then incubated with serial dilutions (10 nM-1 μM; n=6) of activators 2.7, 2.8, 2.14, 2.16, 2.17, 2.18 and 2.19 in culture medium for 72h at 37° C. The % cell proliferation was assessed by an MTT assay, in comparison to cells incubated in culture medium without activator. No toxicity was observed when the LS174T cells were incubated with the tested activators (and possible metabolites formed in the presence of serum) for 3-days at a 0.01-1 μM activator concentration.

LS174T xenografts [7] = assay: Therapy study in mice with LS174T xenografts; assay type: in vivo
Protocol: Groups of 10 female nude Balb/C mice were s.c. inoculated ca. 1×10^6 LS174T cells in the hindlimb and the therapy study started when the tumors became palpable (5-11 days after tumor cell inoculation). One group was administered four cycles (one cycle every 4 days) of tc-ADC (ca. 4 mg/kg) followed by activator 2.16 (ca. 33.5 μmol/kg) 48 later. Control groups received four cycles of ADC alone, activator alone, or vehicle. Tumor sizes and body weights were measured 2-3 times per week. […] On the contrary, all control mice were euthanized within 3 weeks from the beginning of the treatment due to large tumor size (>1.5 gr) or poor health conditions with a 15.5-17.5 days median survival. Overall, the repeated treatments were tolerated well by the mice, with no overt signs of hematological toxicity that could be attributed to the use of ADC and activator, either in combination or alone.

LS174T xenografts [8] = assay: MMAE measurement in tumors; assay type: in vivo, mice
Protocol: Female nude Balb/C mice were subcutaneously inoculated ca. 1×10^6 LS174T cells in the hind limb. Biodistribution studies started when the tumors reached 0.1-0.2 cm^3 size. Experiments were carried out to evaluate the reactivity between the TCO Trigger on tumor-bound ADC and activators 2.7, 2.8, 2.14 and 2.16 in LS174T xenografts, as previously performed for other activators [Rossin et al Nature Communications 2018, 9, 1484]. The activators were administered at a 20- to 100-lower dose than that used in previous activation and therapy studies (ca. 0.335 mmol/kg). […] Groups of tumor bearing mice (n=4) were injected with ^125I-labeled ADC (2 mg/kg) followed 48 h later by the activators (dose 1×: ca. 3.3 μmol/kg; dose 5×: ca. 16.7 μmol/kg) and, after 1 h, by [^111In]In-2.20 (ca. 0.33 μmol/kg). One group was injected with the same amount of ^125I-labeled ADC followed only by ^111In-2.20 49 h later. One group was injected only with ^111In-2.20 (non-specific probe binding). All mice were euthanized 23 h post-probe injection and the ^125I and ^111In uptakes in tumors were measured by γ-counting.
The concentration of MMAE released in tumors was measured as previously reported [Rossin et al Nature Communications 2018, 9, 1484]. […] For this reason, activator 2.16 was selected for a therapy study in combination with the click-cleavable ADC. At the doses of tc-ADC (4 mg/kg) and 2.16 (dose 10×; 33.5 μmol/kg) used for therapy study, a high level of 339±45 nM free MMAE was detected in tumors.

[9] = 2 min after reaction with activator

Structure (SMILES) | Calculated k2 values for the reaction between tetrazine activators and TCO 3.2 in PBS [1] [M⁻¹ s⁻¹] | Calculated k2 values for the reaction between tetrazine activators and TCO 3.2 in MeCN [4] [M⁻¹ s⁻¹] | half-life at 16.6 µM [5] [h] | MMAE release from ADC AVP0458-TCO-MMAE, Release (%) (ADC AVP0458-TCO-MMAE; [9]) | MMAE release from ADC AVP0458-TCO-MMAE, Release (%) (ADC AVP0458-TCO-MMAE; 10 min) | MMAE release from ADC AVP0458-TCO-MMAE, Release (%) (ADC AVP0458-TCO-MMAE; 1 h) | MMAE release from ADC AVP0458-TCO-MMAE, Release (%) (ADC AVP0458-TCO-MMAE; 5 h) | MMAE release from ADC AVP0458-TCO-MMAE, Release (%) (ADC AVP0458-TCO-MMAE; 24 h, mean ± SD (n = 3)) | MMAE release level, in words (ADC AVP0458-TCO-MMAE) | MMAE release speed, in words (ADC AVP0458-TCO-MMAE) | viability at 72 h, 0.01 μM [6] [%] | viability at 72 h, 0.1 μM [6] [%] | viability at 72 h, 1 μM [6] [%] | other results
Oc1cccnc1-c1nnc(-c2ncccc2O)nn1 [2.7, 2,2′-(1,2,4,5-Tetrazine-3,6-diyl)bis(pyridin-3-ol)] | 397 ± 4 | 68 | 37.8 ± 0.8 | 53.8 | 80.1 | 80.9 | 83.8 | 98.4 ± 0.3 | as high as that obtained with the less reactive 2.17 | faster | 93.6 ± 4.1 | 91.5 ± 4.4 | 98.2 ± 4.6 | Construct release % ([2]; TCO 3.10, doxorubicin, 18 h, 37° C.): 18 h: 100%; Construct release % ([2]; TCO 3.10, released construct doxorubicin, 5 min): 5 min: 52%; Construct release % ([2]; TCO 3.11, released construct doxorubicin, 5 min): 5 min: 100%; Construct release % ([2]; TCO 3.2, dimethylamine, 2 h, incubated at 37° C.): 2 h: 80%; Construct release % ([2]; TCO 3.2, dimethylamine, 20 h, incubated at 37° C.): 20 h: 95%; Construct release % ([2]; TCO 3.2, released construct dimethylamine, 5 min, MeCN/PBS): 5 min: 50%; Construct release % ([2]; TCO 3.23, released construct dimethylamine, 5 min): 5 min: 100%; Construct release % ([2]; TCO 3.32, released construct dimethylamine, 5 min): 5 min: 100%; Construct release % ([2]; TCO 3.7, 3-phenylpropan-1-ol, 24 h, 37° C.): 24 h: 88%; Construct release % ([2]; TCO 3.7, 3-phenylpropan-1-ol, 48 h, 37° C.): 48 h: 95%; Construct release % ([2]; TCO 3.7, released construct 3-phenylpropan-1-ol, 5 min): 5 min: 74%; Construct release % ([2]; TCO 3.8, benzoic acid, 24 h, 37° C.): 24 h: 90%; Construct release % ([2]; TCO 3.8, released construct benzoic acid, 5 min): 5 min: 45%; Construct release % ([2]; TCO 3.9, phenol, 24 h, 37° C.): 24 h: 93%; Construct release % ([2]; TCO 3.9, released construct phenol, 5 min): 5 min: 50%; radiolabel release [3]: 88.6%
Oc1cnccc1-c1nnc(-c2ccncc2O)nn1 [2.8, 4,4′-(1,2,4,5-Tetrazine-3,6-diyl)bis(pyridin-3-ol)] | 270 ± 11 | 10 | 6.5 ± 0.6 | 48.7 | 83.4 | 92.7 | 93.6 | 94.3 ± 1.3 | as high as that obtained with the less reactive 2.17 | faster | 96.9 ± 3.6 | 98.4 ± 3.6 | 93.9 ± 5.2 | –
O=C(CCCC(=O)Nc1cnccc1-c1nnc(-c2ccncc2NC(=O)CCCC(=O)NCCOCCOCCOCCOCCOCCOCCOCCOCCOCCO)nn1)NCCOCCOCCOCCOCCOCCOCCOCCOCCOCCO [2.16, N^1,N^1′-(4,4′-(1,2,4,5-Tetrazine-3,6-diyl)bis(pyridine-4,3-diyl))bis(N^5-(29-hydroxy-3,6,9,12,15,18,21,24,27-nonaoxanonacosyl)glutaramide)] | 519 ± 12 | – | 4.2 ± 0.1 | 1.9 | 19.4 | 70.7 | 82.8 | 95.6 ± 0.6 | as high as that obtained with the less reactive 2.17 | – | 105 ± 7.4 | 96.9 ± 3 | 93.9 ± 2.8 | time for which growth of LS174T tumors was completely inhibited (LS174T xenografts [7]; four cycles of tc-ADC (ca. 4 mg/kg) followed by activator 2.16 (ca. 33.5 μmol/kg) 48 later): over 3 weeks; median overall survival (LS174T xenografts [7]; four cycles, one cycle every 4 days, treated group: tc-ADC ca. 4 mg/kg + 2.16 ca. 33.5 μmol/kg, controls: ADC alone, activator alone, or vehicle): 42 days; MMAE release in tumors, comparison of activators (LS174T xenografts [8]; 5× dose of activator): significantly higher release; free MMAE in tumors, comparison of activators (LS174T xenografts [8]; 24 h after administration of activator at dose 1×): No difference
